Among the data in patent US10875876B2, “Cyclized sulfamoylarylamide derivatives and the use thereof as medicaments for the treatment of hepatitis B” (priority 2015, dated 2020) are melting point, CC50 and EC50 values, retold here.

As a reminder, the melting point is the temperature, or range, at which the solid turns liquid. In general, CC50 refers to the concentration that lowers cell viability or growth by half. A high value points to better tolerance by the cells. By EC50 is commonly meant the concentration needed to bring the measured effect to its halfway point.

SMILES strings stand for the structures.

A short description of data set [1]: Cytotoxicity in HepG2 cells, Resazurin assay. Particulars: human, HepG2 cells, TOX-HepG2-4 d CC50 (μM), HepG2 cells incubated for 4 days, viability by Resazurin assay. For orientation: The colour change of resazurin is a common sign of viable cells or microbes.
Another data set concerns HBV. Kind of data set: anti HBV activity, HepG2.117 cell line, intracellular HBV DNA by realtime PCR. It counts as cell-based. The conditions noted are these: Hepatitis B virus, HepG2.117, 72 h, HepG2.117 cell line (Tet-off), 3 days of treatment, intracellular HBV DNA quantified by realtime PCR; read-out: HBV-AVE-HepG2.117 EC50. The method, boiled down:
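Readout was intracellular HBV DNA by real-time PCR (HBV-specific primers and probe) after 3 days of compound exposure. Serial dilutions were tested in duplicate on HepG2.117 cells, a stable inducible HBV producer in which replication is switched on when doxycycline is absent.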

The compound `C[C@H](O)[C@H]1C=Cc2c(cn(C)c2C(=O)Nc2ccc(F)c(C(F)F)c2)S(=O)(=O)N1` [Compound 96, (3R)—N-[3-(difluoromethyl)-4-fluoro-phenyl]-3-[(1S)-1-hydroxyethyl]-7-methyl-1,1-dioxo-2,3-dihydropyrrolo[3,4-f]thiazepine-6-carboxamide] gave a melting point of 182.3 °C. In data set [1], the CC50 at 4 days is above 25 µM. Also, the EC50 in the data set on HBV turned out to be 5 nM.

In the case of `C[C@H](O)[C@H]1C=Cc2c(cn(C)c2C(=O)Nc2cc(F)c(F)c(F)c2)S(=O)(=O)N1` [Compound 98, (3R)-3-[(1S)-1-hydroxyethyl]-7-methyl-1,1-dioxo-N-(3,4,5-trifluorophenyl)-2,3-dihydropyrrolo[3,4-f]thiazepine-6-carboxamide], the melting point amounted to 244 °C. Further, the CC50 at 4 days in data set [1] is above 25 µM. Besides, the EC50 in the data set with HBV amounted to 8 nM.

Compound `Cn1cc2c(c1C(=O)Nc1ccc(F)c(C(F)F)c1)OC[C@@H](C(C)(C)O)NS2(=O)=O` [Compound 101, (3S)—N-[3-(difluoromethyl)-4-fluoro-phenyl]-3-(1-hydroxy-1-methyl-ethyl)-7-methyl-1,1-dioxo-3,4-dihydro-2H-pyrrolo[3,4-b][1,4,5]oxathiazepine-6-carboxamide] came in with a melting point of 214.4 °C. The CC50 at 4 days in data set [1] is above 25 µM. In addition, the EC50 in the data set with HBV stood at 14 nM.

`Cn1cc2c(c1C(=O)Nc1ccc(F)c(F)c1)CC[C@H](C(C)(C)O)NS2(=O)=O` [Compound 102, (3R)—N-(3,4-difluorophenyl)-3-(1-hydroxy-1-methyl-ethyl)-7-methyl-1,1-dioxo-2,3,4,5-tetrahydropyrrolo[3,4-f]thiazepine-6-carboxamide] had a melting point of 218.2 °C. The same compound gave a CC50 at 4 days in data set [1] above 25 µM. Also, the EC50 with HBV is 9 nM.

With `C[C@H](O)[C@H]1CCc2c(cn(C)c2C(=O)Nc2ccc(F)c(C(F)F)c2)S(=O)(=O)N1` [Compound 103, (3R)—N-[3-(difluoromethyl)-4-fluoro-phenyl]-3-[(1S)-1-hydroxyethyl]-7-methyl-1,1-dioxo-2,3,4,5-tetrahydropyrrolo[3,4-f]thiazepine-6-carboxamide], the melting point amounted to 274.7 °C. Moreover, the CC50 at 4 days in data set [1] was above 25 µM. Moreover, the EC50 in the data set on HBV came out at 6 nM.

In the case of `Cn1cc2c(c1C(=O)Nc1ccc(F)c(C#N)c1)OC[C@H](C(C)(C)O)NS2(=O)=O` [Compound 106, (3R)—N-(3-cyano-4-fluoro-phenyl)-3-(1-hydroxy-1-methyl-ethyl)-7-methyl-1,1-dioxo-3,4-dihydro-2H-pyrrolo[3,4-b][1,4,5]oxathiazepine-6-carboxamide], the melting point turned out to be 260.1 °C. Besides, in data set [1], the CC50 at 4 days was above 25 µM. In the data set with HBV, the EC50 was found to be 8 nM.

Consider `Cn1cc2c(c1C(=O)Nc1ccc(F)c(C#N)c1)OC[C@@H](C(C)(C)O)NS2(=O)=O` [Compound 107, (3S)—N-(3-cyano-4-fluoro-phenyl)-3-(1-hydroxy-1-methyl-ethyl)-7-methyl-1,1-dioxo-3,4-dihydro-2H-pyrrolo[3,4-b][1,4,5]oxathiazepine-6-carboxamide], for which the melting point was 259.8 °C. In data set [1], this compound registered a CC50 at 4 days above 25 µM. For the same compound, in the data set with HBV, the concentration for a half-maximal effect (EC50) turned out to be 80 nM.

With `Cc1cc(NC(=O)c2c3c(cn2C)S(=O)(=O)N[C@@H]([C@H](C)O)CC3)ccc1F` [Compound 112, (3R)—N-(4-fluoro-3-methyl-phenyl)-3-[(1S)-1-hydroxyethyl]-7-methyl-1,1-dioxo-2,3,4,5-tetrahydropyrrolo[3,4-f]thiazepine-6-carboxamide], the melting point was 287.3 °C. The CC50 at 4 days in data set [1] was above 25 µM. For the same compound, the EC50 with HBV was 3 nM.

On to `Cn1cc2c(c1C(=O)Nc1ccc(F)c(F)c1)CC[C@@H](C(C)(C)O)NS2(=O)=O` [Compound 113, (3S)—N-(3,4-difluorophenyl)-3-(1-hydroxy-1-methyl-ethyl)-7-methyl-1,1-dioxo-2,3,4,5-tetrahydropyrrolo[3,4-f]thiazepine-6-carboxamide], for which the melting point stood at 217.7 °C. The CC50 at 4 days in data set [1] is above 25 µM. Further, the EC50 with HBV was determined as 120 nM.

`Cn1cc2c(c1C(=O)Nc1ccc(F)c(F)c1)OC[C@@H](C(C)(C)F)NS2(=O)=O` [Compound 121, (3S)—N-(3,4-difluorophenyl)-3-(1-fluoro-1-methyl-ethyl)-7-methyl-1,1-dioxo-3,4-dihydro-2H-pyrrolo[3,4-b][1,4,5]oxathiazepine-6-carboxamide] returned a melting point of 239.8 °C. In addition, the 50% cytotoxic concentration (CC50) at 4 days in data set [1] was above 25 µM. Besides, the EC50 with HBV was determined as 29 nM.

`Cn1cc2c(c1C(=O)Nc1ccc(F)c(F)c1)OCC(C)(c1ccccc1)NS2(=O)=O` (stereo not drawn) [Compound 125, N-(3,4-difluorophenyl)-3,7-dimethyl-1,1-dioxo-3-phenyl-2,4-dihydropyrrolo[3,4-b][1,4,5]oxathiazepine-6-carboxamide]: the melting point is 256.6 °C. In data set [1], the half-maximal cytotoxic concentration (CC50) at 4 days is above 25 µM. Moreover, in the data set on HBV, the EC50 was found to be 7 nM.

`Cn1cc2c(c1C(=O)Nc1ccc(F)c(F)c1)OC[C@@](C)(c1ccccn1)NS2(=O)=O` [Compound 126, (3R)—N-(3,4-difluorophenyl)-3,7-dimethyl-1,1-dioxo-3-(2-pyridyl)-2,4-dihydropyrrolo[3,4-b][1,4,5]oxathiazepine-6-carboxamide] registered a melting point of 270.5 °C. The compound further registered a CC50 at 4 days in data set [1] above 25 µM. For the same compound, the EC50 in the data set on HBV worked out at 62 nM.

Compound `Cn1cc2c(c1C(=O)Nc1ccc(F)c(F)c1)OC[C@](C)(c1ccccn1)NS2(=O)=O` [Compound 127, (3S)—N-(3,4-difluorophenyl)-3,7-dimethyl-1,1-dioxo-3-(2-pyridyl)-2,4-dihydropyrrolo[3,4-b][1,4,5]oxathiazepine-6-carboxamide] yielded a melting point of 270.8 °C. Moreover, the CC50 at 4 days in data set [1] is above 25 µM. For the same compound, in the data set on HBV, the EC50 worked out at 13 nM.

`Cn1cc2c(c1C(=O)Nc1ccc(F)c(C#N)c1)OC[C@](C)(c1ccccn1)NS2(=O)=O` [Compound 128, (3S)—N-(3-cyano-4-fluoro-phenyl)-3,7-dimethyl-1,1-dioxo-3-(2-pyridyl)-2,4-dihydropyrrolo[3,4-b][1,4,5]oxathiazepine-6-carboxamide]: the melting point stood at 235 °C. In data set [1], this compound returned a CC50 at 4 days above 25 µM. Moreover, the EC50 in the data set with HBV is 24 nM.

`Cn1cc2c(c1C(=O)Nc1ccnc(Cl)c1)OC[C@H](C(C)(C)O)NS2(=O)=O` [Compound 146, (3R)—N-(2-chloro-4-pyridyl)-3-(1-hydroxy-1-methyl-ethyl)-7-methyl-1,1-dioxo-3,4-dihydro-2H-pyrrolo[3,4-b][1,4,5]oxathiazepine-6-carboxamide]: the melting point worked out at 246.6 °C. In data set [1], this compound came in with a CC50 at 4 days above 25 µM. Further, in the data set on HBV, the EC50 worked out at 55 nM.

The compound `C[C@H]1CCc2c(cn(C)c2C(=O)Nc2ccc(F)c(C#N)c2F)S(=O)(=O)N1` [Compound 157, (3S)—N-(3-cyano-2,4-difluoro-phenyl)-3,7-dimethyl-1,1-dioxo-2,3,4,5-tetrahydropyrrolo[3,4-f]thiazepine-6-carboxamide] gave a melting point of 247.5 °C. The compound also displayed a CC50 at 4 days in data set [1] above 25 µM. Also, the EC50 in the data set on HBV is 17 nM.

Compound `Cn1cc2c(c1C(=O)Nc1ccnc(C(F)F)c1)OCC(C)(C)NS2(=O)=O` [Compound 158, N-[2-(difluoromethyl)-4-pyridyl]-3,3,7-trimethyl-1,1-dioxo-2,4-dihydropyrrolo[3,4-b][1,4,5]oxathiazepine-6-carboxamide] had a melting point of 229.9 °C. In data set [1], this compound yielded a cytotoxic concentration (CC50) at 4 days above 25 µM. Also, in the data set on HBV, the EC50 is 31 nM.

`C[C@H]1CCc2c(cn(C)c2C(=O)Nc2ccc(F)c(C(F)F)c2F)S(=O)(=O)N1` [Compound 164, (3S)—N-[3-(difluoromethyl)-2,4-difluoro-phenyl]-3,7-dimethyl-1,1-dioxo-2,3,4,5-tetrahydropyrrolo[3,4-f]thiazepine-6-carboxamide] returned a melting point of 227.7 °C. The same compound returned a CC50 at 4 days in data set [1] above 25 µM. The EC50 with HBV came out at 12 nM.

For the compound `Cn1cc2c(c1C(=O)Nc1ccc(F)c(C(F)F)c1)OC[C@](C)(c1ccccn1)NS2(=O)=O` [Compound 169, (3S)—N-[3-(difluoromethyl)-4-fluoro-phenyl]-3,7-dimethyl-1,1-dioxo-3-(2-pyridyl)-2,4-dihydropyrrolo[3,4-b][1,4,5]oxathiazepine-6-carboxamide], the melting point is 208.8 °C. Besides, the CC50 at 4 days in data set [1] was above 25 µM. In the data set with HBV, the EC50 came to 17 nM.

`Cn1cc2c(c1C(=O)Nc1ccc(F)c(F)c1)OCC(C)(Cc1ccc(Br)nc1)NS2(=O)=O` (stereo not drawn) [Compound 171, 3-[(6-bromo-3-pyridyl)methyl]-N-(3,4-difluorophenyl)-3,7-dimethyl-1,1-dioxo-2,4-dihydropyrrolo[3,4-b][1,4,5]oxathiazepine-6-carboxamide] came in with a melting point of 259.2 °C. Besides, the 50% cytotoxic concentration (CC50) at 4 days in data set [1] is above 25 µM. In addition, the half-maximal effective concentration (EC50) in the data set on HBV is 8 nM.

In turn, `Cn1ccnc1CC1(C)COc2c(cn(C)c2C(=O)Nc2ccc(F)c(F)c2)S(=O)(=O)N1` (stereo not drawn) [Compound 173, N-(3,4-difluorophenyl)-3,7-dimethyl-3-[(1-methylimidazol-2-yl)methyl]-1,1-dioxo-2,4-dihydropyrrolo[3,4-b][1,4,5]oxathiazepine-6-carboxamide] displayed a melting point of 297.1 °C. The compound further returned a CC50 at 4 days in data set [1] above 25 µM. The EC50 in the data set with HBV was found to be 17 nM.

In the case of `Cn1cncc1CC1(C)COc2c(cn(C)c2C(=O)Nc2ccc(F)c(F)c2)S(=O)(=O)N1` (stereo not drawn) [Compound 174, N-(3,4-difluorophenyl)-3,7-dimethyl-3-[(3-methylimidazol-4-yl)methyl]-1,1-dioxo-2,4-dihydropyrrolo[3,4-b][1,4,5]oxathiazepine-6-carboxamide], the melting point is 265.5 °C. The compound further came in with a CC50 at 4 days in data set [1] above 25 µM. Moreover, the EC50 in the data set on HBV came to 7 nM.
